# Data from patent publication US12246026B2, “Ganaxolone for use in treatment of status epilepticus” (Marinus Pharmaceuticals, Inc., priority 2019, dated 2025).
# How the values were obtained:
# progesterone receptor = molecular target: T1, progesterone receptor (Homo sapiens, UniProt P06401); experiment: Progesterone receptor activation; details: directly or indirectly via metabolic conversion
# T1 sequence (P06401 1-933): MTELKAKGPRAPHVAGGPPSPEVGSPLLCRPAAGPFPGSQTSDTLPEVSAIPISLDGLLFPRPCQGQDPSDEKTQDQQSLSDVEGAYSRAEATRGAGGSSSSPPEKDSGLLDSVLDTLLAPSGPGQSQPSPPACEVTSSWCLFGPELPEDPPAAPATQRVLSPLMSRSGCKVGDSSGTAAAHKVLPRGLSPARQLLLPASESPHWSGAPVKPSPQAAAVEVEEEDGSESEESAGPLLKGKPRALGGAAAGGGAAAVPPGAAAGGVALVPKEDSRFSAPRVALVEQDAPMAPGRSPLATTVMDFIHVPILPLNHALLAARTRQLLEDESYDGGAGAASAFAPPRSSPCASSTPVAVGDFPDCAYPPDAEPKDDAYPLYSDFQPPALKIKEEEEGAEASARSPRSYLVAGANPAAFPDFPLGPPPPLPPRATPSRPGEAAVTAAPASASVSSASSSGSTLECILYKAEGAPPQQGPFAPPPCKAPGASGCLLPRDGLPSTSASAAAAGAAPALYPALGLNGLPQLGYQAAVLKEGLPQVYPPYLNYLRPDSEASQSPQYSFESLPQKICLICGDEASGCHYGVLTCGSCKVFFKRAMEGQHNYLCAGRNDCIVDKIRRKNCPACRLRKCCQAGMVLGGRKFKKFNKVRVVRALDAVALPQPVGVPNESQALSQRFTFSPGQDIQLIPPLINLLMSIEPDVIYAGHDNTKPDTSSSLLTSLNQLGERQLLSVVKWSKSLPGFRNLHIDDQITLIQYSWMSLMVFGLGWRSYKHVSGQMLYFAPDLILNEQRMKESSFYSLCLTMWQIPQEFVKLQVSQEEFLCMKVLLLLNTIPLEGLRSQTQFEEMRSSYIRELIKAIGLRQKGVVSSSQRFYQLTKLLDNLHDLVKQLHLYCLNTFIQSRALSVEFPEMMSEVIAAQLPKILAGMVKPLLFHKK
# From the text: Ganaxolone (3α-hydroxy-3β-methyl-5α-pregnan-20-one) is a 3β-methylated synthetic analogue of the endogenous neurosteroid allopregnanolone with similar biological activity (Carter et al., (1997), The Journal of Pharmacology and Experimental Therapeutics, 280:1284-1295), but it is designed to not activate nuclear (classical) progesterone receptors. Also, in contrast to allopregnanolone, ganaxolone is orally bioavailable.
# [1] = Human PK in subjects taking strong CYP inducers; assay type: in vivo; details: subjects taking strong CYP inducers (carbamazepine and phenytoin)
# Solubility of ganaxolone = assay type: physicochemical
# Description: Ganaxolone is insoluble in water. […] Ganaxolone has a relatively long half-life—approximately 20 hours in human plasma following oral administration (Nohria, V. and Giller, E., Neurotherapeutics, (2007) 4(1): 102-105). Furthermore, ganaxolone has a short Tmax, which means that therapeutic blood levels are reached quickly.
# Ganaxolone formulations suitable for parenteral administration in the methods of the present invention may comprise physiologically acceptable sterile aqueous or non-aqueous solutions, dispersions, suspensions or emulsions, and sterile powders for reconstitution into sterile injectable solutions or dispersions. Examples of suitable aqueous and non-aqueous carriers, diluents, solvents, or vehicles including water, ethanol, polyols (propylene glycol, polyethylene-glycol, glycerol, cremophor and the like), suitable mixtures thereof, vegetable oils (such as olive oil) and injectable organic esters such as ethyl oleate. Additionally, ganaxolone can be dissolved at concentrations of >1 mg/ml using water soluble beta cyclodextrins (e.g. beta-sulfobutyl-cyclodextrin and 2-hydroxypropylbetacyclodextrin). A particularly suitable cyclodextrin is a substituted-β-cyclodextrin is Captisol®. […]
# [2] = Toxicology studies in animals on prenatal and neonatal development; assay type: in vivo
# From the text: Ganaxolone has been administered to infants with severe forms of epilepsy as early as 4 months of age. In clinical trials involving administration of ganaxolone over several weeks, the study drug has been tapered off over a 1 to 2-week period.
# [3] = system: pediatric subject with SRSE; experiment: Emergency IND No. 137,883, IV GNX in pediatric SRSE
# [4] = Phase 1 IV ganaxolone pharmacokinetics in healthy subjects; assay type: in vivo, human
# Description: A Phase I clinical trial evaluating IV ganaxolone formulation was performed. The clinical trial was designed to investigate the safety, pharmacokinetics, and pharmacodynamics of an intravenous bolus of ganaxolone and continuous intravenous infusion of ganaxolone in 30 healthy subjects. Subjects were administered either an intravenous bolus of ganaxolone in an amount of 10-20 mg for a period of 2 minutes to 1 hour, or an intravenous bolus of ganaxolone in an amount of 6 mg for a period of 5 minutes with a continuous intravenous infusion in an amount of 20 mg/hr for a period of 4 hours.
# There was little or no delay between the appearance of drug in plasma and a change in the BIS score.
structure (smiles),measurement,setting,value
"CC(=O)[C@H]1CC[C@H]2[C@@H]3CC[C@H]4C[C@](C)(O)CC[C@]4(C)[C@H]3CC[C@]12C [Ganaxolone, 3α-hydroxy-3β-methyl-5α-pregnan-20-one]",activation of the progesterone receptor,progesterone receptor,does not activate the progesterone receptor directly or indirectly
same,lowering in overall ganaxolone levels and exposure,[1],~45%
same,solubility,"Solubility of ganaxolone; aqueous with cosolvent or surfactant or cyclodextrin, beta-sulfobutyl-cyclodextrin, 2-hydroxypropylbetacyclodextrin, read-out: dissolved concentration using water soluble beta cyclodextrins",> 1000 µg/mL
same,solubility in water,Solubility of ganaxolone; water,insoluble
same,toxicities in prenatal and neonatal development studies,[2],have not demonstrated toxicities
same,duration of suppressed EEG background,"[3]; eIND 137,883",approximately 2 hours
same,finding on examination leading to stop of infusion,"[3]; eIND 137,883",nonreactive pupils
same,EEG at the time of GNX bolus infusion,"[3]; eIND 137,883, concomitant pentobarbital 2.25 mg/kg/hr",continuous suppressed background
same,ganaxolone levels in plasma,"[4]; all 30 healthy subjects, IV bolus or bolus plus infusion",quantifiable
same,dose relation of plasma concentrations,"[4]; healthy subjects, IV",generally proportional to the administered dose
